In PubChem BioAssay AID2060908 (Molecular Pharmacology Branch, DTP, NCI, 2025):
pIC50: −log10 of the molar value.

System: 186277-243-T-J2-PDC complex spheroids, viability
Assay: Anticancer human tumor 186277-243-T-J2-PDC patient-derived colon adenocarcinoma cell line growth inhibition [RAS]
Conditions: for pIC50: curve of first compound; for viability, T/C: stronger effect = lower value
How it was run: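 Multi-cell-type spheroids: tumor cells plus HUVEC endothelial cells and mesenchymal stem cells. RAS-pathway inhibitors were combined with targeted agents, each dosed in half-log steps down from clinical Cmax, or from 10 microM when Cmax was unknown.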

[1] = second compound 0.00316 µM, first compound 0.0316 µM
[2] = second compound 0.00316 µM, first compound 0.1 µM
[3] = second compound 0.00316 µM, first compound 0.316 µM
[4] = second compound 0.00316 µM, first compound 1 µM
[5] = second compound 0.00316 µM, first compound 3.16 µM
[6] = second compound 0.00316 µM, first compound 10 µM
[7] = second compound 0.01 µM, first compound 0.0316 µM
[8] = second compound 0.01 µM, first compound 0.1 µM
[9] = second compound 0.01 µM, first compound 0.316 µM
[10] = second compound 0.01 µM, first compound 1 µM
[11] = second compound 0.01 µM, first compound 3.16 µM
[12] = second compound 0.01 µM, first compound 10 µM
[13] = second compound 0.0316 µM, first compound 0.0316 µM
[14] = second compound 0.0316 µM, first compound 0.1 µM
[15] = second compound 0.0316 µM, first compound 0.316 µM
[16] = second compound 0.0316 µM, first compound 1 µM
[17] = second compound 0.0316 µM, first compound 3.16 µM
[18] = second compound 0.0316 µM, first compound 10 µM
[19] = second compound 0.1 µM, first compound 0.0316 µM
[20] = second compound 0.1 µM, first compound 0.1 µM
[21] = second compound 0.1 µM, first compound 0.316 µM
[22] = second compound 0.1 µM, first compound 1 µM
[23] = second compound 0.1 µM, first compound 3.16 µM
[24] = second compound 0.1 µM, first compound 10 µM
[25] = second compound 0.316 µM, first compound 0.0316 µM
[26] = second compound 0.316 µM, first compound 0.1 µM
[27] = second compound 0.316 µM, first compound 0.316 µM
[28] = second compound 0.316 µM, first compound 1 µM
[29] = second compound 0.316 µM, first compound 3.16 µM
[30] = second compound 0.316 µM, first compound 10 µM
[31] = second compound 1 µM, first compound 0.0316 µM
[32] = second compound 1 µM, first compound 0.1 µM
[33] = second compound 1 µM, first compound 0.316 µM
[34] = second compound 1 µM, first compound 1 µM
[35] = second compound 1 µM, first compound 3.16 µM
[36] = second compound 1 µM, first compound 10 µM
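Further: spheroids exposed to compounds for 7 days before viability read.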

For `CC(C)NCC(C(=O)N1CCN(c2ncnc3c2C(C)CC3O)CC1)c1ccc(Cl)cc1` (stereo unspecified) + C=CC(=O)N1CCN(c2nc(OCC3CCCN3C)nc3c(F)c(-c4nc(N)cc(C)c4C(F)(F)F)c(Cl)cc23)C(C)C1, the pIC50 (second compound 0.00316 µM) was 5.77, the pIC50 (second compound 0.01 µM) was 5.49 and the pIC50 (second compound 0.0316 µM) was 5.57. It also gave a pIC50 (second compound 0.1 µM) of 5.69, a pIC50 (second compound 0.316 µM) of 5.60 and a pIC50 (second compound 1 µM) of 5.72. For the same compound, the viability, T/C [1] was 94.2%, the viability, T/C [2] was 87% and the viability, T/C [3] was 113%. It also gave a viability, T/C [4] of 59.2%, a viability, T/C [5] of 43.6% and a viability, T/C [6] of 34%. The viability, T/C [7] was 78.7%, the viability, T/C [8] was 100% and the viability, T/C [9] was 101%. For the same compound, the viability, T/C [10] was 79.4%, the viability, T/C [11] was 51.4% and the viability, T/C [12] was 33.6%. It also gave a viability, T/C [13] of 72.3%, a viability, T/C [14] of 110% and a viability, T/C [15] of 77.1%. It also gave a viability, T/C [16] of 87.1%, a viability, T/C [17] of 44.1% and a viability, T/C [18] of 35.2%. For the same compound, the viability, T/C [19] was 93.2%, the viability, T/C [20] was 85.8% and the viability, T/C [21] was 103%. The viability, T/C [22] was 63.4%, the viability, T/C [23] was 47.6% and the viability, T/C [24] was 35.8%. For the same compound, the viability, T/C [25] was 91.4%, the viability, T/C [26] was 96.3% and the viability, T/C [27] was 89.1%. For the same compound, the viability, T/C [28] was 62.8%, the viability, T/C [29] was 49.9% and the viability, T/C [30] was 29.5%. The viability, T/C [31] was 107%, the viability, T/C [32] was 97.7% and the viability, T/C [33] was 87.5%. The viability, T/C [34] was 63.7%, the viability, T/C [35] was 38.9% and the viability, T/C [36] was 25.2%.

For `CC(C)n1nc(-c2ccc3oc(N)nc3c2)c2c(N)ncnc21` + C=CC(=O)N1CCN(c2nc(OCC3CCCN3C)nc3c(F)c(-c4nc(N)cc(C)c4C(F)(F)F)c(Cl)cc23)C(C)C1, the pIC50 (second compound 0.00316 µM) was 7.07, the pIC50 (second compound 0.01 µM) was < 7.00 and the pIC50 (second compound 0.0316 µM) was < 7.00. For the same compound, the pIC50 (second compound 0.1 µM) was 7.01, the pIC50 (second compound 0.316 µM) was 7.02 and the pIC50 (second compound 1 µM) was 7.10. For the same compound, the viability, T/C (second compound 0.00316 µM, first compound 0.000316 µM) was 109%, the viability, T/C (second compound 0.00316 µM, first compound 0.001 µM) was 92.1% and the viability, T/C (second compound 0.00316 µM, first compound 0.00316 µM) was 91.1%. For the same compound, the viability, T/C (second compound 0.00316 µM, first compound 0.01 µM) was 80.4%, the viability, T/C [1] was 90.1% and the viability, T/C [2] was 43.5%. It also gave a viability, T/C (second compound 0.01 µM, first compound 0.000316 µM) of 97.6%, a viability, T/C (second compound 0.01 µM, first compound 0.001 µM) of 96.7% and a viability, T/C (second compound 0.01 µM, first compound 0.00316 µM) of 82.5%. It also gave a viability, T/C (second compound 0.01 µM, first compound 0.01 µM) of 106%, a viability, T/C [7] of 77.7% and a viability, T/C [8] of 51.4%. It also gave a viability, T/C (second compound 0.0316 µM, first compound 0.000316 µM) of 95.1%, a viability, T/C (second compound 0.0316 µM, first compound 0.001 µM) of 104% and a viability, T/C (second compound 0.0316 µM, first compound 0.00316 µM) of 80.3%. It also gave a viability, T/C (second compound 0.0316 µM, first compound 0.01 µM) of 123%, a viability, T/C [13] of 89.8% and a viability, T/C [14] of 56.8%. For the same compound, the viability, T/C (second compound 0.1 µM, first compound 0.000316 µM) was 94.5%, the viability, T/C (second compound 0.1 µM, first compound 0.001 µM) was 106% and the viability, T/C (second compound 0.1 µM, first compound 0.00316 µM) was 108%. The viability, T/C (second compound 0.1 µM, first compound 0.01 µM) was 91%, the viability, T/C [19] was 90.8% and the viability, T/C [20] was 48.5%. For the same compound, the viability, T/C (second compound 0.316 µM, first compound 0.000316 µM) was 92.5%, the viability, T/C (second compound 0.316 µM, first compound 0.001 µM) was 106% and the viability, T/C (second compound 0.316 µM, first compound 0.00316 µM) was 94%. The viability, T/C (second compound 0.316 µM, first compound 0.01 µM) was 93.9%, the viability, T/C [25] was 97.4% and the viability, T/C [26] was 48%. It also gave a viability, T/C (second compound 1 µM, first compound 0.000316 µM) of 109%, a viability, T/C (second compound 1 µM, first compound 0.001 µM) of 101% and a viability, T/C (second compound 1 µM, first compound 0.00316 µM) of 84.6%. For the same compound, the viability, T/C (second compound 1 µM, first compound 0.01 µM) was 113%, the viability, T/C [31] was 82.5% and the viability, T/C [32] was 42.5%.

In the case of `C[C@@H](NC(=O)c1ncnc(N)c1Cl)c1ncc(C(=O)Nc2cc(C(F)(F)F)c(Cl)cn2)s1` + C=CC(=O)N1CCN(c2nc(OCC3CCCN3C)nc3c(F)c(-c4nc(N)cc(C)c4C(F)(F)F)c(Cl)cc23)C(C)C1, the pIC50 (second compound 0.00316 µM) was < 5.00, the pIC50 (second compound 0.01 µM) was < 5.00 and the pIC50 (second compound 0.0316 µM) was < 5.00. The pIC50 (second compound 0.1 µM) was < 5.00, the pIC50 (second compound 0.316 µM) was < 5.00 and the pIC50 (second compound 1 µM) was < 5.00. It also gave a viability, T/C [1] of 102%, a viability, T/C [2] of 104% and a viability, T/C [3] of 73.2%. It also gave a viability, T/C [4] of 86.2%, a viability, T/C [5] of 93.9% and a viability, T/C [6] of 106%. It also gave a viability, T/C [7] of 80.8%, a viability, T/C [8] of 83.8% and a viability, T/C [9] of 114%. The viability, T/C [10] was 89.5%, the viability, T/C [11] was 126% and the viability, T/C [12] was 71.2%. For the same compound, the viability, T/C [13] was 104%, the viability, T/C [14] was 113% and the viability, T/C [15] was 84.3%. It also gave a viability, T/C [16] of 97.4%, a viability, T/C [17] of 122% and a viability, T/C [18] of 72.2%. The viability, T/C [19] was 86.4%, the viability, T/C [20] was 103% and the viability, T/C [21] was 103%. The viability, T/C [22] was 95.1%, the viability, T/C [23] was 121% and the viability, T/C [24] was 97.3%. For the same compound, the viability, T/C [25] was 103%, the viability, T/C [26] was 92.3% and the viability, T/C [27] was 95.5%. For the same compound, the viability, T/C [28] was 87%, the viability, T/C [29] was 104% and the viability, T/C [30] was 84.7%. The viability, T/C [31] was 104%, the viability, T/C [32] was 82% and the viability, T/C [33] was 82.4%. It also gave a viability, T/C [34] of 92.1%, a viability, T/C [35] of 91.2% and a viability, T/C [36] of 89.8%.
